Ends that are not written are not given here. * marks the point of attachment. For = O=C*
Columns and labels:
[1] = tested on: FPR1; design: method as in number not given; settings: ref number not given; cited from earlier work
[2] = tested on: FPR2; design: method as in number not given; settings: ref number not given; cited from earlier work
[3] = target: T1, TLR4 receptor (Homo sapiens, UniProt O00206+Q9Y6Y9); experiment: HEK-Blue hTLR4 stimulation, SEAP reporter; assay type: cell-based; settings: HEK-Blue hTLR4, BacSp222 0.016 to 2 μM without LPS, 17 h
T1 construct: host or cells: HEK-Blue hTLR4 (HEK293 reporter cells)
Protocol: The eukaryotic cells were cultured according to the methods described in previous publications. , The murine monocyte/macrophage RAW 264.7 cell line (ATCC TIB-71) and the murine monocyte/macrophage P388.D1 cell line (ATCC CCL-46) were purchased from the American Type Culture Collection (ATCC, Manassas, VA, USA). Human TLR4/NF-κB/SEAP (HEK-Blue hTLR4) and human TLR2 + TLR6/NF-κB/SEAP (HEK-Blue hTLR2/TLR6) reporter HEK293 cells were obtained from InvivoGen (San Diego, CA, USA). The passages of all TLR reporter HEK293 cells ranged from 7 to 15. All cells used in experiments were cultured under the following conditions: 5% CO2, 37 °C, and >95% humidity. RAW 264.7 and P388.D1 cells were cultured in Dulbecco’s modified Eagle’s medium (DMEM) containing 4.5 g/L glucose (GIBCO, Paisley, UK) and 5% (v/v) fetal bovine serum (FBS, GIBCO, Paisley, UK), whereas HEK-Blue hTLR4 and HEK-Blue hTLR2/TLR6 were cultured in DMEM containing 4.5 g/L glucose, 10% (v/v) FBS, 50 units/mL penicillin, and 50 μg/mL streptomycin (both from GIBCO, Paisley, UK). […]
Measurement of the activity of SEAP, secreted by the HEK-Blue cells to the media, was conducted as described previously. […] Then, the plate was incubated at 37 °C for 1 h in the dark, and the absorbance was measured at 620 nm using a Synergy H1 Hybrid microplate reader controlled by Gene5 version 2.00.18 software (BIOTEK Instruments, Winooski, VT, USA). […]

[4] = tested on: TLR2/TLR6 heterodimer; settings: cited from earlier work
Source text: A good example of such a multifunctional and immunomodulatory bacteriocin is the peptide BacSp222, produced by an opportunistic canine pathogen, strain 222. BacSp222 is a 50 amino acid long linear peptide encoded on a plasmid and is produced without a leader sequence, retaining a formylated N-terminal methionine.

[5] = tested on: pro-inflammatory cytokines; settings: TNF, MCP-1, IL-1-alpha, IL-8; via TLR2/TLR6, MyD88, NF-κB; ref our recent studies; cited from earlier work
Source text: (§1) A good example of such a multifunctional and immunomodulatory bacteriocin is the peptide BacSp222, produced by an opportunistic canine pathogen, strain 222. BacSp222 is a 50 amino acid long linear peptide encoded on a plasmid and is produced without a leader sequence, retaining a formylated N-terminal methionine. Its amino acid sequence seems to be unique, but the general physicochemical properties of BacSp222 resemble features of a group of several previously described bacteriocins of, predominantly, different staphylococci: lacticins Q and Z, aureocins A53 and AurK411, capidermicin, and epid ...

[6] = tested on: Gram-positive bacteria; settings: pore formation; ref number not given; cited from earlier work
Source text: as §1

[7] = tested on: mouse immune cells; settings: in the presence of IFN-gamma; ref number not given; cited from earlier work
Source text: as §1

[8] = tested on: human neutrophils; design: method as in number not given; settings: ref number not given; cited from earlier work

T1 sequence (O00206 24-839): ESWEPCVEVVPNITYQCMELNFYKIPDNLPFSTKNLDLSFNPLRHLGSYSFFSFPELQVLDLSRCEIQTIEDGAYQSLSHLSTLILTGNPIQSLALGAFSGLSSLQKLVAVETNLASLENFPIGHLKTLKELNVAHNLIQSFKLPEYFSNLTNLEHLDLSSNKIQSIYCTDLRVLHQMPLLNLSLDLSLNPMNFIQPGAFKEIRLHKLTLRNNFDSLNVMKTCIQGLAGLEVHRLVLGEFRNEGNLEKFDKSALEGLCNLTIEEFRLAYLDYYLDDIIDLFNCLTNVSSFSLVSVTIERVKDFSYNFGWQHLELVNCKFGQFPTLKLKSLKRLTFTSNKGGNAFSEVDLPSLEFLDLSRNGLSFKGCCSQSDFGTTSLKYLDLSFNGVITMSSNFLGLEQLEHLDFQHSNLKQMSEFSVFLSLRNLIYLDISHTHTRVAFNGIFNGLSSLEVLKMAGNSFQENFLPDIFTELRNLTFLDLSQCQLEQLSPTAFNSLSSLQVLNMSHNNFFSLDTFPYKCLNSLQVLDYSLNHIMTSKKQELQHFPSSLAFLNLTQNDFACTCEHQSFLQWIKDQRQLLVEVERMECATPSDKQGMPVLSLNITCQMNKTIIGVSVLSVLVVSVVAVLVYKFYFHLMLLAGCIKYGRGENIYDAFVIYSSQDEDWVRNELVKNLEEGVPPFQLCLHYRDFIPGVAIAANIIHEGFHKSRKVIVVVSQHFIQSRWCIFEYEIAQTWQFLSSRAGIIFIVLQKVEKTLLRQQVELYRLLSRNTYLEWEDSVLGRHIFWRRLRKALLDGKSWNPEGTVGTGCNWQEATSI
T1 sequence (Q9Y6Y9 17-160 limits assumed): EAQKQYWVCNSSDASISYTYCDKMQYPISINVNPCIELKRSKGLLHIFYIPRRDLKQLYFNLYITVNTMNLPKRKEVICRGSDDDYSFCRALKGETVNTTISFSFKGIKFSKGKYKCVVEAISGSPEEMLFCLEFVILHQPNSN

For-MAGLLRFLLSKGRALYNWAKSHVGKVWEWLKSGATYEQIKEWIENALGWR [BacSp222]
activation of FPR1 [1]: cannot activate
activation of FPR2 [2]: cannot activate
stimulation of TLR4 by BacSp222 alone [3]: none of the tested BacSp222 concentrations stimulated the TLR4 receptors
affinity for TLR2/TLR6 heterodimer vs synthetic ligands ([4]; kinetic studies, vs ligands based on lipoteichoic acids or lipopeptides, ref number not given): lower affinity for the TLR2/TLR6 heterodimer than synthetic ligands
recognition by TLR2/TLR6 ([4]; ref our recent studies (ref 15)): recognized by the TLR2/TLR6 receptor heterodimer
induction of pro-inflammatory cytokines [5]: induces the synthesis of many pro-inflammatory cytokines
bactericidal activity, Gram-positive bacteria [6]: kills a wide range of Gram-positive bacteria
induction of NO secretion [7]: capable of stimulating mouse immune cells to express an inducible nitric oxide synthase and, consequently, to secrete nitric oxide (NO)
activation of human neutrophils (ROS, NETs) [8]: cannot activate human neutrophils to produce reactive oxygen species (ROS) and induce the production of extracellular neutrophil traps (NETs)
